Results published in patent publication US20260256792A1, “TREATMENT OF CHRONIC SPONTANEOUS URTICARIA BY ADMINISTERING (R)-2-[3-[4-AMINO-3-(2-FLUORO-4-PHENOXY-PHENYL)PYRAZOLO[3,4-D]PYRIMIDIN-1-YL]PIPERIDINE-1-CARBONYL]-4-METHYL-4-[4-(OXETAN-3-YL)PIPERAZIN-1-YL]PENT-2-ENENITRILE” (priority 2023, published 2026).

System: moderate-to-severe chronic spontaneous urticaria (CSU)
Experiment: Phase 2 CSU study: urticaria activity score over 7 days (UAS7)
Assay type: in vivo, human
Conditions: Omalizumab-Naïve
Excerpt: The study comprises a 12 week, randomized, double-blind, placebo-controlled, multi-center, dose-ranging efficacy and safety phase, followed by a 40 week open label extension (OLE) phase (see FIG. 1). The study consists of three phases and an optional OLE phase. […] Clinically, CSU is characterized by the spontaneous and recurrent appearance of pruritic hives. The proposed primary endpoints were the UAS7 at Week 12 in EU and EU reference countries and the ISS7 in the US. Regardless of where a participant was from, all assessments were the same. The UAS7 score is a composite score containing both the HSS7 and the ISS7. This allowed a global assessment of the two key components of urticaria: hives and itch. […] The UAS is a validated PRO measure. […] The daily UAS scores range from 0 to 6 point/day. […] Patients were to complete the UAS using the e-diary. […] The following secondary endpoints were to be analyzed using the same approach as for the primary endpoint: • Change from baseline in UAS7 at Week 4 • Change from baseline in UAS7 at Week 12 (for US and US reference countries) • Change from baseline in ISS7 at Week 12 (except US and US reference countries) • Change from baseline in HSS7 at Week 12 The following responder secondary endpoints were to be analyzed using the Cochran-Mantel-Haenszel test adjusted by region: • Proportion of participants with UAS7<6 at Week 12 • Proportion of participants with UAS7=0 at Week 12 Participants who received selected prohibited medications and/or rescue medications were to be considered as non-responders for time points after the medication usage. For other participants, all available data including those collected during the off-treatment period were to be used to determine the responder/non-responder status. Missing data were to be considered as non-responders.

[1] = Ethnicity Non-Hispanic, 400 mg TID
[2] = History of angioedema No, 400 mg BID
[3] = History of angioedema No, 400 mg QPM
[4] = History of angioedema No, 400 mg TID
[5] = History of angioedema Yes, 400 mg BID
[6] = History of angioedema Yes, 400 mg QPM
[7] = History of angioedema Yes, 400 mg TID
[8] = Race All the Others, 400 mg BID
[9] = Race All the Others, 400 mg QPM
[10] = Race All the Others, 400 mg TID
[11] = Region Eastern Europe, 400 mg BID
[12] = Region Eastern Europe, 400 mg QPM
[13] = Region Eastern Europe, 400 mg TID
[14] = Region Latin America, 400 mg BID
[15] = Region Latin America, 400 mg QPM

CC(C)(C=C(C#N)C(=O)N1CCC[C@@H](n2nc(-c3ccc(Oc4ccccc4)cc3F)c3c(N)ncnc32)C1)N1CCN(C2COC2)CC1 [rilzabrutinib, (R)-2-[3-[4-amino-3-(2-fluoro-4-phenoxy-phenyl)pyrazolo[3,4-d]pyrimidin-1-yl]piperidine-1-carbonyl]-4-methyl-4-[4-(oxetan-3-yl)piperazin-1-yl]pent-2-enenitrile]
Change from Baseline in UAS7 at Week 12: Mean (SD) (Ethnicity Non-Hispanic, 400 mg QPM): −10.78 (9.25) | Change from Baseline in UAS7 at Week 12: LS Mean (SE) [1]: −19.24 (2.48) | Change from Baseline in UAS7 at Week 12: Mean (SD) [1]: −22.02 (10.28) | Change from Baseline in UAS7 at Week 12: Mean (SD) (Gender Female, 400 mg BID): −13.23 (11.66) | Change from Baseline in UAS7 at Week 12: Mean (SD) (Gender Female, 400 mg QPM): −10.93 (9.28) | Change from Baseline in UAS7 at Week 12: Mean (SD) (Gender Female, 400 mg TID): −20.41 (11.94) | Change from Baseline in UAS7 at Week 12: LS Mean (SE) (Gender Male, 400 mg BID): −16.67 (3.54) | Change from Baseline in UAS7 at Week 12: Mean (SD) (Gender Male, 400 mg BID): −16.87 (13.20) | Change from Baseline in UAS7 at Week 12: LS Mean (SE) (Gender Male, 400 mg QPM): −8.84 (4.15) | Change from Baseline in UAS7 at Week 12: Mean (SD) (Gender Male, 400 mg QPM): −9.58 (10.13) | Change from Baseline in UAS7 at Week 12: Mean (SD) (Gender Male, 400 mg TID): −12.72 (5.65) | Change from Baseline in UAS7 at Week 12: LS Mean (SE) [2]: −15.01 (2.39) | Change from Baseline in UAS7 at Week 12: LS Mean Diff vs. placebo (95% CI) [2]: −5.13 (−12.18, 1.92) | Change from Baseline in UAS7 at Week 12: Mean (SD) [2]: −17.10 (12.56) | Change from Baseline in UAS7 at Week 12: LS Mean (SE) [3]: −7.72 (2.58) | Change from Baseline in UAS7 at Week 12: LS Mean Diff vs. placebo (95% CI) [3]: 2.16 (−5.19, 9.52) | Change from Baseline in UAS7 at Week 12: Mean (SD) [3]: −9.12 (7.74) | Change from Baseline in UAS7 at Week 12: LS Mean (SE) [4]: −17.97 (2.40) | Change from Baseline in UAS7 at Week 12: LS Mean Diff vs. placebo (95% CI) [4]: −8.09 (−15.14, −1.03) | Change from Baseline in UAS7 at Week 12: Mean (SD) [4]: −20.20 (12.00) | Change from Baseline in UAS7 at Week 12: LS Mean (SE) [5]: −11.58 (3.69) | Change from Baseline in UAS7 at Week 12: LS Mean Diff vs. placebo (95% CI) [5]: −1.91 (−11.17, 7.35) | Change from Baseline in UAS7 at Week 12: Mean (SD) [5]: −8.60 (9.01) | Change from Baseline in UAS7 at Week 12: LS Mean (SE) [6]: −11.20 (2.97) | Change from Baseline in UAS7 at Week 12: LS Mean Diff vs. placebo (95% CI) [6]: −1.53 (−9.72, 6.65) | Change from Baseline in UAS7 at Week 12: Mean (SD) [6]: −13.08 (11.63) | Change from Baseline in UAS7 at Week 12: LS Mean (SE) [7]: −15.33 (3.68) | Change from Baseline in UAS7 at Week 12: LS Mean Diff vs. placebo (95% CI) [7]: −5.66 (−14.82, 3.50) | Change from Baseline in UAS7 at Week 12: Mean (SD) [7]: −16.58 (10.23) | Change from Baseline in UAS7 at Week 12: LS Mean (SE) [8]: −11.33 (3.66) | Change from Baseline in UAS7 at Week 12: LS Mean Diff vs. placebo (95% CI) [8]: −4.82 (−14.87, 5.24) | Change from Baseline in UAS7 at Week 12: Mean (SD) [8]: −11.25 (10.32) | Change from Baseline in UAS7 at Week 12: LS Mean (SE) [9]: −8.43 (3.32) | Change from Baseline in UAS7 at Week 12: LS Mean Diff vs. placebo (95% CI) [9]: −1.92 (−11.55, 7.72) | Change from Baseline in UAS7 at Week 12: Mean (SD) [9]: −9.59 (9.91) | Change from Baseline in UAS7 at Week 12: LS Mean (SE) [10]: −14.94 (3.44) | Change from Baseline in UAS7 at Week 12: LS Mean Diff vs. placebo (95% CI) [10]: 8.43 (−18.08, 1.23) | Change from Baseline in UAS7 at Week 12: Mean (SD) [10]: −14.86 (9.62) | Change from Baseline in UAS7 at Week 12: LS Mean (SE) (Race White, 400 mg BID): −15.38 (2.37) | Change from Baseline in UAS7 at Week 12: LS Mean Diff vs. placebo (95% CI) (Race White, 400 mg BID): −4.73 (−11.30, 1.84) | Change from Baseline in UAS7 at Week 12: Mean (SD) (Race White, 400 mg BID): −15.92 (12.79) | Change from Baseline in UAS7 at Week 12: LS Mean (SE) (Race White, 400 mg QPM): −9.37 (2.37) | Change from Baseline in UAS7 at Week 12: LS Mean Diff vs. placebo (95% CI) (Race White, 400 mg QPM): 1.28 (−5.33, 7.88) | Change from Baseline in UAS7 at Week 12: LS Mean (SE) (Race White, 400 mg TID): −17.97 (2.44) | Change from Baseline in UAS7 at Week 12: LS Mean Diff vs. placebo (95% CI) (Race White, 400 mg TID): −7.33 (−13.95, −0.70) | Change from Baseline in UAS7 at Week 12: Mean (SD) (Race White, 400 mg TID): −20.70 (11.84) | Change from Baseline in UAS7 at Week 12: LS Mean (SE) (Region Asia, 400 mg BID): −11.32 (3.76) | Change from Baseline in UAS7 at Week 12: LS Mean Diff vs. placebo (95% CI) (Region Asia, 400 mg BID): −4.86 (−15.18, 5.46) | Change from Baseline in UAS7 at Week 12: Mean (SD) (Region Asia, 400 mg BID): −11.25 (10.32) | Change from Baseline in UAS7 at Week 12: LS Mean (SE) (Region Asia, 400 mg QPM): −9.00 (3.50) | Change from Baseline in UAS7 at Week 12: Mean (SD) (Region Asia, 400 mg QPM): −9.59 (9.91) | Change from Baseline in UAS7 at Week 12: LS Mean (SE) (Region Asia, 400 mg TID): −14.25 (3.99) | Change from Baseline in UAS7 at Week 12: LS Mean Diff vs. placebo (95% CI) (Region Asia, 400 mg TID): −7.78 (−18.32, 2.76) | Change from Baseline in UAS7 at Week 12: LS Mean (SE) [11]: −6.34 (10.64) | Change from Baseline in UAS7 at Week 12: LS Mean Diff vs. placebo (95% CI) [11]: 13.37 (−19.79, 46.54) | Change from Baseline in UAS7 at Week 12: Mean (SD) [11]: −20.14 (18.13) | Change from Baseline in UAS7 at Week 12: LS Mean (SE) [12]: −5.35 (5.65) | Change from Baseline in UAS7 at Week 12: LS Mean Diff vs. placebo (95% CI) [12]: 14.37 (−6.40, 35.15) | Change from Baseline in UAS7 at Week 12: Mean (SD) [12]: −5.79 (5.45) | Change from Baseline in UAS7 at Week 12: LS Mean (SE) [13]: −25.97 (6.17) | Change from Baseline in UAS7 at Week 12: LS Mean Diff vs. placebo (95% CI) [13]: −6.26 (−24.55, 12.03) | Change from Baseline in UAS7 at Week 12: Mean (SD) [13]: −21.88 (11.40) | Change from Baseline in UAS7 at Week 12: LS Mean (SE) [14]: −9.26 (3.71) | Change from Baseline in UAS7 at Week 12: LS Mean Diff vs. placebo (95% CI) [14]: 2.62 (−7.19, 12.43) | Change from Baseline in UAS7 at Week 12: Mean (SD) [14]: −10.23 (11.81) | Change from Baseline in UAS7 at Week 12: LS Mean (SE) [15]: −10.74 (3.14) | Change from Baseline in UAS7 at Week 12: LS Mean Diff vs. placebo (95% CI) [15]: 1.14 (−7.86, 10.15)
